In assay [1] the test system is constitutive active colorectal cancer cell (CRC) Wnt pathway. The assay is described as follows: HCT116 Super TopFlash cellular reporter assay (constitutive active Wnt pathway). Format: cell-based. As to conditions: Homo sapiens, HCT-116, 36 h, HCT116 TOP reporter cells, luciferase expression, 36 hours incubation, 50 μM to 15 nM. The method, then: In order to discover and characterize small molecules which inhibit the constitutive active colorectal cancer cell (CRC) Wnt pathway, a cellular reporter assay was employed. The corresponding assay cell was generated by transfection of the colorectal cancer cell line HCT116 (ATCC, #CCL-247) with the Super TopFlash vector (Morin, Science 275, 1997, 1787-1790; Molenaar et al., Cell 86 (3), 1996, 391-399). The HCT116 cell line is cultivated at 37° C. and 5% CO2 in DMEM/F-12 (Life Technologies, #11320-074), supplemented with 2 mM glutamine, 20 mM HEPES, 1.4 mM pyruvate, 0.15% Na-bicarbonate and 10% foetal bovine serum (GIBCO, #10270), this cancer cell line is pathophysiological relevant since it carries a deletion of position S45 in the β-catenin gene, leading to constitutive active Wnt signaling. Stable transfectants were generated by cotransfection with pcDNA3 and selection of stable transfected cells with 1 mg/ml G418.
(§1) In a parallel approach, HCT116 cells were cotransfected with the FOP control vector and pcDNA3. The FOP vector is identical to the TOP construct, but it contains instead of functional TCF elements a randomized, non-functional sequence. For this transfection a stable transfected cell line was generated as well.
(§2) In preparation of the assay, the two cell lines were plated 24 hrs before at 10000 cells per well of a 384 micro titre plate (MTP) in 30 μL growth medium. Selective inhibitory activity for small molecules on the mutated Wnt pathway was determined after parallel incubation of both (TOP and FOP) HCT116 reporter cell lines with a compound dilution series from 50 μM to 15 nM in steps of 3.16-fold dilutions in CAFTY buffer (130 mM NaCl, 5 mM KCl, 20 mM HEPES, 1 mM MgCl2, 5 mM NaHCO3, pH 7.4) containing 2 mM Ca^2+ and 0.01% BSA. The compounds were thereby serially prediluted in 100% DMSO and thereafter in addition 50 fold into the CAFTY compound dilution buffer (described above). From this dilution 10 μL were added to the cells in 30 μL growth medium and incubated for 36 hours at 37° C. and 5% CO2. Thereafter luciferase assay buffer (1:1 mixture of luciferase substrate buffer (20 mM Tricine, 2.67 mM MgSO4, 0.1 mM EDTA, 4 mM DTT, 270 μM Coenzyme A, 470 μM Luciferin, 530 μM ATP, ph adjusted to pH 7.8 with a sufficient volume of 5M NaOH) and Triton buffer (30 mL Triton X-100, 115 mL glycerol, 308 mg Dithiothreitol, 4.45 g Na2HPO4.2 H2O, 3.03 g Tris.HCL, ad 1 l H20, pH 7.8) was added as equal volume to the compound solution on the cells to determine luciferase expression as a measure of Wnt signaling activity in a luminometer.
In general terms: In a reporter assay the amount or activity of a reporter protein is the signal.

Assay [2] has as its system HCT116 FOP control reporter cell line. As to the kind of experiment: HCT116 FOP control vector reporter assay (non-functional TCF elements). As to conditions: Homo sapiens, HCT-116, 36 h, HCT116 FOP control reporter cells, luciferase expression, 36 hours incubation, 50 μM to 15 nM; read-out: HCT116 FOPFlash IC50. Format: cell-based. The method, then:
as §1, §2

With `COc1ccc(NC(=O)c2ccc(-c3ccc4c(c3)CCO4)cc2)cc1NC(=O)CN1CCOCC1` [Example 208, 4-(2,3-dihydro-1-benzofuran-5-yl)-N-{4-methoxy-3-[(morpholin-4-ylacetyl)amino]phenyl} benzamide], the IC50 (commonly the concentration needed to halve the response being measured) is 3000 nM in assay [1] and no less than 50 µM in assay [2].

`CS(=O)(=O)c1ccc(C(=O)Nc2ccc(-c3ccccc3)cc2)cc1NC(=O)CN1CCOCC1` [Example 111, N-(biphenyl-4-yl)-4-(methylsulfonyl)-3-[(morpholin-4-ylacetyl)amino]benzamide]: the figures for the IC50 in assay [1] and in assay [2] were 162 nM and no less than 50 µM, respectively.

In the case of `COc1ccc(NC(=O)c2ccc(-c3ccccc3)cc2)cc1N(Cc1ccccc1)C(=O)CN1CCOCC1` [Example 64, N-{3-[benzyl(morpholin-4-ylacetyl)amino]-4-methoxyphenyl}biphenyl-4-carboxamide], the IC50 in assay [1] was found to be 3500 nM; in assay [2] it was 48 µM.

As for `COCc1ccc(C(=O)Nc2ccc(-c3ccccc3)cc2)cc1NC(=O)C(C)N1CC2CCC(C1)O2` (single isomer, unassigned) [Example 146, N-(biphenyl-4-yl)-4-(methoxymethyl)-3-{[(2R*)-2-(8-oxa-3-azabicyclo[3.2.1]oct-3-yl)propanoyl)amino} benzamide], the IC50 in assay [1] came out at 9.98 nM; in assay [2], 27 µM.

Take `COCCCOCc1ccc(C(=O)Nc2ccc(-c3ccccc3)cc2)cc1NC(=O)CN1CC2CCC(C1)O2` [Example 176, N-(biphenyl-4-yl)-4-[(3-methoxypropoxy)methyl]-3-[(8-oxa-3-azabicyclo[3.2.1]oct-3-ylacetyl)amino]benzamide]: the IC50 is 260 nM in assay [1] and 3.42 µM in assay [2].

As to `CC(CN1CCOCC1)C(=O)Nc1cc(C(=O)Nc2ccc(-c3ccccc3)cc2)ccc1C(F)(F)F` (stereo not shown) [Example 139, N-(biphenyl-4-yl)-3-{[2-methyl-3-(morpholin-4-yl)propanoyl]amino}-4-(trifluoromethyl)benzamide], the IC50 in assay [1] is 1430 nM; in assay [2], no less than 50 µM.

Regarding `NC(=O)COc1ccc(C(=O)Nc2ccc(-c3ccccc3)cc2)cc1NC(=O)CN1CCOCC1` [Example 122, 4-(2-amino-2-oxoethoxy)-N-(biphenyl-4-yl)-3-[(morpholin-4-ylacetyl)amino]benzamide], the IC50 in assay [1] was 338 nM; in assay [2], 15.5 µM.

With `COc1ccc(NC(=O)c2ccc(-c3ccccc3)cc2)cc1NC(=O)CN1CCO[C@H](CO)C1` [Example 214, N-[3-({[(2S)-2-(hydroxymethyl)morpholin-4-yl]acetyl}amino)-4-methoxyphenyl]biphenyl-4-carboxamide], the IC50 in assay [1] is 4900 nM; in assay [2] it was no less than 50 µM.

`O=C(CN1CCOCC1)Nc1cc(C(=O)Nc2ccc(-c3ccccc3)cc2)ccc1OCC1CC1` [Example 220, N-(biphenyl-4-yl)-4-(cyclopropylmethoxy)-3-[(morpholin-4-ylacetyl)amino)benzamide]: the IC50 in assay [1] was 160 nM; in assay [2] it was no less than 50 µM.

In the case of `COc1ccc(C(=O)Nc2ccc(-c3ccccc3)cc2)cc1NC(=O)C1(N2CCOCC2)CCC1` [Example 206, N-(biphenyl-4-yl)-4-methoxy-3-({[1-(morpholin-4-yl)cyclobutyl)carbonyl}amino)benzamide], the figures for the IC50 in assay [1] and in assay [2] were 2480 nM and no less than 50 µM, respectively.

Consider `COCc1ccc(C(=O)Nc2ccc(-c3ccccc3)cc2)cc1NC(=O)C(C)N1CC2CCC(C1)O2` (single isomer, unassigned) [Example 167, N-(biphenyl-4-yl)-4-(methoxymethyl)-3-{[(2S*)-2-(8-oxa-3-azabicyclo[3.2.1]oct-3-yl)propanoyl]amino} benzamide], for which the IC50 in assay [1] worked out at 139 nM; in assay [2], 41.2 µM.

`COc1ccc(NC(=O)c2ccc(-c3ccccc3)cc2)cc1NC(=O)CN1C[C@@H](C)O[C@@H](C)C1` [Example 212, N-[3-({[(2R,6S)-2,6-dimethylmorpholin-4-yl]acetyl}amino)-4-methoxyphenyl]biphenyl-4-carboxamide]: the figures for the IC50 in assay [1] and in assay [2] were 4350 nM and no less than 50 µM, respectively.

Regarding `CC(C(=O)Nc1cc(NC(=O)c2ccc(-c3ccccc3)cc2)ccc1C(F)(F)F)N1CC2CCC(C1)O2` (stereo not shown) [Example 178, N-[3-{[2-(8-oxa-3-azabicyclo[3.2.1]oct-3-yl)propanoyl]amino}-4-(trifluoromethyl)phenyl) biphenyl-4-carboxamide], the results for the IC50 in assay [1] and in assay [2] were 285 nM and 47.5 µM, respectively.

`O=C(CN1CCOCC1)Nc1cc(NC(=O)c2ccc(-c3ccccc3)cc2)ccc1F` [Example 29, N-{4-fluoro-3-[(morpholin-4-ylacetyl)amino]phenyl}biphenyl-4-carboxamide]: the IC50 in assay [1] was 2150 nM; in assay [2] it was no less than 50 µM.

Regarding `CC(C)(C)c1ccc(NC(=O)c2ccc(-c3ccccc3)cc2)cc1NC(=O)CN1CCOCC1` [Example 67, N-{4-tert-butyl-3-[(morpholin-4-ylacetyl)amino]phenyl}biphenyl-4-carboxamide], the IC50 stood at 210 nM in assay [1] and 9.8 µM in assay [2].

Take `COc1c(Cl)cc(C(=O)Nc2ccc(-c3ccccc3)cc2)cc1NC(=O)CN1CCOCC1` [Example 136, N-(biphenyl-4-yl)-3-chloro-4-methoxy-5-[(morpholin-4-ylacetyl]amino]benzamide]: the IC50 in assay [1] is 750 nM; in assay [2], 38.5 µM.

As to `COc1ccc(NC(=O)c2ccc(-c3cccc(N)c3)cc2)cc1NC(=O)CN1CCOCC1` [Example 209, 3′-amino-N-{4-methoxy-3-[(morpholin-4-ylacetyl)amino]phenyl} biphenyl-4-carboxamide], the half-inhibitory concentration (IC50) in assay [1] was 3550 nM; in assay [2], no less than 50 µM.

For `COCCCOCc1ccc(C(=O)Nc2ccc(-c3ccccc3)cc2)cc1NC(=O)C(C)N1CCOCC1` (stereo not shown) [Example 160, N-(biphenyl-4-yl)-4-[(3-methoxypropoxy)methyl]-3-([2-(morpholin-4-yl)propanoyl]amino} benzamide], the IC50 in assay [1] turned out to be 79.5 nM; in assay [2] it was 30 µM.

Take `COC1CCN(CC(=O)Nc2cc(C(=O)Nc3ccc(-c4ccccc4)cc3)ccc2OC2CC2)C1` (stereo not shown) [Example 174, N-(biphenyl-4-yl)-4-(cyclopropyloxy)-3-{[(3-methoxypyrrolidin-1-yl)acetyl)amino}benzamide]: the IC50 is 215 nM in assay [1] and no less than 50 µM in assay [2].

`O=C(CN1CC2CCC(C1)O2)Nc1cc(C(=O)Nc2ccc(-c3ccccc3)cc2)ccc1OC1CC1` [Example 128, N-(biphenyl-4-yl)-4-(cyclopropyloxy)-3-[(8-oxa-3-azabicyclo[3.2.1]oct-3-ylacetyl)amino]benzamide]: the IC50 was 74 nM in assay [1] and no less than 50 µM in assay [2].

Turning to `COCc1ccc(C(=O)Nc2ccc(-c3ccccc3)cc2)cc1NC(=O)C(C)N1CC2CCC(C1)O2` (stereo not shown) [Example 170, N-(biphenyl-4-yl)-4-(methoxymethyl)-3-{(2-(8-oxa-3-azabicyclo[3.2.1]oct-3-yl)propanoyl)amino} benzamide], the IC50 was found to be 178 nM in assay [1] and 7.4 µM in assay [2].

Turning to `CC(C)(O)c1ccc(C(=O)Nc2ccc(-c3ccccc3)cc2)cc1NC(=O)CN1CCOCC1` [Example 117, N-(biphenyl-4-yl)-4-(2-hydroxypropan-2-yl)-3-[(morpholin-4-ylacetyl)amino]benzamide], the IC50 was 153 nM in assay [1] and no less than 50 µM in assay [2].

Turning to `COc1cc(Cl)c(C(=O)Nc2ccc(-c3ccccc3)cc2)cc1NC(=O)CN1CCOCC1` [Example 6, N-(biphenyl-4-yl)-2-chloro-4-methoxy-5-[(morpholin-4-ylacetyl)amino]benzamide], the IC50 in assay [1] is 3920 nM; in assay [2], no less than 50 µM.

Values taken from patent US20160052898A1, “NOVEL COMPOUNDS” (BAYER PHARMA AKTIENGESELLSCHAFT, priority 2013, published 2016).
